{"source": "ChEMBL document CHEMBL1944505", "about": "“Novel synthetic methods for N-cyano-1H-imidazole-4-carboxamides and their fungicidal activity” (Bioorg Med Chem Lett, 2012)", "key": {"Fusarium oxysporum": {"tested_on": "Fusarium oxysporum", "assay": "Antifungal activity against Fusarium oxysporum at 50 ug/mL by agar plate method", "assay_type": "functional, organism-based"}, "Botrytis": {"tested_on": "Botrytis", "assay": "Antifungal activity against Botrytis […] at 50 ug/mL by agar plate method", "assay_type": "functional"}, "Fusarium graminearum": {"tested_on": "Fusarium graminearum", "assay": "Antifungal activity against Gibberella zeae at 50 ug/mL by agar plate method", "assay_type": "functional, organism-based"}, "[1]": {"assay": "Antifungal activity against Dothiorella gregaria at 50 ug/mL by agar plate method", "assay_type": "functional"}, "Colletotrichum": {"tested_on": "Colletotrichum", "assay": "Antifungal activity against Colletotrichum gossypii at 50 ug/mL by agar plate method", "assay_type": "functional"}, "Rhizoctonia solani [2]": {"tested_on": "Rhizoctonia solani", "assay": "Antifungal activity against Rhizoctonia solani by agar plate method", "assay_type": "functional, organism-based"}, "Rhizoctonia solani [3]": {"tested_on": "Rhizoctonia solani", "assay": "Ratio of triadimefon EC50 to compound EC50 for Rhizoctonia solani", "assay_type": "functional"}}, "note": "Calls of active or inactive are those of the source. The calls are words filed in the database; no cut-off is given here.", "data": [{"smiles": "Cc1ccc(Cn2cnc(C(=O)N(C#N)Cc3ccccc3F)c2C)cc1", "values": [{"measurement": "Activity", "setting": "Fusarium oxysporum", "value": "inactive"}, {"measurement": "Activity", "setting": "Botrytis", "value": "inactive"}, {"measurement": "Activity", "setting": "Fusarium graminearum", "value": "inactive"}, {"measurement": "Activity", "setting": "[1]", "value": "inactive"}, {"measurement": "Activity", "setting": "Colletotrichum", "value": "inactive"}, {"measurement": "EC50", "setting": "Rhizoctonia solani [2]", "value": 8.76, "unit": "µg/mL"}]}, {"smiles": "Cc1c(C(=O)N(C#N)Cc2ccc(F)cc2)ncn1Cc1ccc(F)cc1", "values": [{"measurement": "Activity", "setting": "Fusarium oxysporum", "value": "inactive"}, {"measurement": "Activity", "setting": "Botrytis", "value": "inactive"}, {"measurement": "Activity", "setting": "Fusarium graminearum", "value": "inactive"}, {"measurement": "Activity", "setting": "[1]", "value": "inactive"}, {"measurement": "Activity", "setting": "Colletotrichum", "value": "inactive"}, {"measurement": "EC50", "setting": "Rhizoctonia solani [2]", "value": 20.8, "unit": "µg/mL"}]}, {"smiles": "Cc1c(C(=O)N(C#N)Cc2ccccc2)ncn1Cc1ccc(F)cc1", "values": [{"measurement": "Activity", "setting": "Fusarium oxysporum", "value": "inactive"}, {"measurement": "Activity", "setting": "Botrytis", "value": "inactive"}, {"measurement": "Activity", "setting": "Fusarium graminearum", "value": "inactive"}, {"measurement": "Activity", "setting": "[1]", "value": "inactive"}, {"measurement": "Activity", "setting": "Colletotrichum", "value": "inactive"}, {"measurement": "EC50", "setting": "Rhizoctonia solani [2]", "value": 31.3, "unit": "µg/mL"}]}, {"smiles": "Cc1ccc(Cn2cnc(C(=O)N(C#N)Cc3ccccc3Cl)c2C)cc1", "values": [{"measurement": "Activity", "setting": "Fusarium oxysporum", "value": "inactive"}, {"measurement": "Activity", "setting": "Botrytis", "value": "inactive"}, {"measurement": "Activity", "setting": "Fusarium graminearum", "value": "inactive"}, {"measurement": "Activity", "setting": "[1]", "value": "inactive"}, {"measurement": "Activity", "setting": "Colletotrichum", "value": "inactive"}, {"measurement": "EC50", "setting": "Rhizoctonia solani [2]", "value": 3.53, "unit": "µg/mL"}]}, {"smiles": "Cc1ccc(Cn2cnc(C(=O)N(C#N)CCCc3ccccc3)c2C)cc1", "values": [{"measurement": "Activity", "setting": "Fusarium oxysporum", "value": "inactive"}, {"measurement": "Activity", "setting": "Botrytis", "value": "inactive"}, {"measurement": "Activity", "setting": "Fusarium graminearum", "value": "inactive"}, {"measurement": "Activity", "setting": "[1]", "value": "inactive"}, {"measurement": "Activity", "setting": "Colletotrichum", "value": "inactive"}, {"measurement": "EC50", "setting": "Rhizoctonia solani [2]", "value": 4.64, "unit": "µg/mL"}]}, {"smiles": "Cc1c(C(=O)N(C#N)Cc2ccccc2)ncn1Cc1ccccc1", "values": [{"measurement": "Activity", "setting": "Fusarium oxysporum", "value": "inactive"}, {"measurement": "Activity", "setting": "Botrytis", "value": "inactive"}, {"measurement": "Activity", "setting": "Fusarium graminearum", "value": "inactive"}, {"measurement": "Activity", "setting": "[1]", "value": "inactive"}, {"measurement": "Activity", "setting": "Colletotrichum", "value": "inactive"}, {"measurement": "EC50", "setting": "Rhizoctonia solani [2]", "value": 7.74, "unit": "µg/mL"}]}, {"smiles": "CC(C)(C)C(=O)C(Oc1ccc(Cl)cc1)n1cncn1", "note": "(stereo not drawn) [TRIADIMEFON]", "values": [{"measurement": "EC50", "setting": "Rhizoctonia solani [2]", "value": 14.7, "unit": "µg/mL"}]}, {"smiles": "COC(=O)c1ccccc1CN(C#N)C(=O)c1ncn(Cc2ccc(F)cc2)c1C", "values": [{"measurement": "Activity", "setting": "Fusarium oxysporum", "value": "inactive"}, {"measurement": "Activity", "setting": "Botrytis", "value": "inactive"}, {"measurement": "Activity", "setting": "Fusarium graminearum", "value": "inactive"}, {"measurement": "Activity", "setting": "[1]", "value": "inactive"}, {"measurement": "Activity", "setting": "Colletotrichum", "value": "inactive"}, {"measurement": "EC50", "setting": "Rhizoctonia solani [2]", "value": 13.3, "unit": "µg/mL"}]}, {"smiles": "Cc1c(C(=O)N(C#N)Cc2ccccc2F)ncn1Cc1cccc([N+](=O)[O-])c1", "values": [{"measurement": "Activity", "setting": "Fusarium oxysporum", "value": "inactive"}, {"measurement": "Activity", "setting": "Botrytis", "value": "inactive"}, {"measurement": "Activity", "setting": "Fusarium graminearum", "value": "inactive"}, {"measurement": "Activity", "setting": "[1]", "value": "inactive"}, {"measurement": "Activity", "setting": "Colletotrichum", "value": "inactive"}, {"measurement": "EC50", "setting": "Rhizoctonia solani [2]", "value": 6.67, "unit": "µg/mL"}]}, {"smiles": "Cc1ccc(Cn2cnc(C(=O)N(C#N)Cc3ccccc3)c2C)cc1", "values": [{"measurement": "Activity", "setting": "Fusarium oxysporum", "value": "inactive"}, {"measurement": "Activity", "setting": "Botrytis", "value": "inactive"}, {"measurement": "Activity", "setting": "Fusarium graminearum", "value": "inactive"}, {"measurement": "Activity", "setting": "[1]", "value": "inactive"}, {"measurement": "Activity", "setting": "Colletotrichum", "value": "inactive"}, {"measurement": "EC50", "setting": "Rhizoctonia solani [2]", "value": 3.04, "unit": "µg/mL"}]}, {"smiles": "CCCCn1cnc(C(=O)N(C#N)Cc2ccccc2F)c1C", "values": [{"measurement": "Activity", "setting": "Fusarium oxysporum", "value": "inactive"}, {"measurement": "Activity", "setting": "Botrytis", "value": "inactive"}, {"measurement": "Activity", "setting": "Fusarium graminearum", "value": "inactive"}, {"measurement": "Activity", "setting": "[1]", "value": "inactive"}, {"measurement": "Activity", "setting": "Colletotrichum", "value": "inactive"}, {"measurement": "EC50", "setting": "Rhizoctonia solani [2]", "value": 13.3, "unit": "µg/mL"}]}, {"smiles": "CCCCn1cnc(C(=O)N(C#N)Cc2ccccc2)c1C", "values": [{"measurement": "Activity", "setting": "Fusarium oxysporum", "value": "inactive"}, {"measurement": "Activity", "setting": "Botrytis", "value": "inactive"}, {"measurement": "Activity", "setting": "Fusarium graminearum", "value": "inactive"}, {"measurement": "Activity", "setting": "[1]", "value": "inactive"}, {"measurement": "Activity", "setting": "Colletotrichum", "value": "inactive"}, {"measurement": "EC50", "setting": "Rhizoctonia solani [2]", "value": 7.98, "unit": "µg/mL"}]}, {"smiles": "Cc1c(C(=O)N(C#N)Cc2ccc(F)cc2)ncn1Cc1cccc([N+](=O)[O-])c1", "values": [{"measurement": "Activity", "setting": "Fusarium oxysporum", "value": "inactive"}, {"measurement": "Activity", "setting": "Botrytis", "value": "inactive"}, {"measurement": "Activity", "setting": "Fusarium graminearum", "value": "inactive"}, {"measurement": "Activity", "setting": "[1]", "value": "inactive"}, {"measurement": "Activity", "setting": "Colletotrichum", "value": "inactive"}, {"measurement": "EC50", "setting": "Rhizoctonia solani [2]", "value": 3.61, "unit": "µg/mL"}]}, {"smiles": "Cc1ccc(Cn2cnc(C(=O)N(C#N)Cc3ccc(F)cc3)c2C)cc1", "values": [{"measurement": "Activity", "setting": "Fusarium oxysporum", "value": "inactive"}, {"measurement": "Activity", "setting": "Botrytis", "value": "inactive"}, {"measurement": "Activity", "setting": "Fusarium graminearum", "value": "inactive"}, {"measurement": "Activity", "setting": "[1]", "value": "inactive"}, {"measurement": "Activity", "setting": "Colletotrichum", "value": "inactive"}, {"measurement": "EC50", "setting": "Rhizoctonia solani [2]", "value": 3.04, "unit": "µg/mL"}]}, {"smiles": "Cc1c(C(=O)N(C#N)Cc2ccc(F)cc2F)ncn1Cc1ccc(F)cc1", "values": [{"measurement": "Activity", "setting": "Fusarium oxysporum", "value": "inactive"}, {"measurement": "Activity", "setting": "Botrytis", "value": "inactive"}, {"measurement": "Activity", "setting": "Fusarium graminearum", "value": "inactive"}, {"measurement": "Activity", "setting": "[1]", "value": "inactive"}, {"measurement": "Activity", "setting": "Colletotrichum", "value": "inactive"}, {"measurement": "EC50", "setting": "Rhizoctonia solani [2]", "value": 2.63, "unit": "µg/mL"}, {"measurement": "Ratio EC50", "setting": "Rhizoctonia solani [3]", "value": 5.6}]}, {"smiles": "CCCCN(C#N)C(=O)c1ncn(CCCC)c1C", "values": [{"measurement": "Activity", "setting": "Fusarium oxysporum", "value": "inactive"}, {"measurement": "Activity", "setting": "Botrytis", "value": "inactive"}, {"measurement": "Activity", "setting": "Fusarium graminearum", "value": "inactive"}, {"measurement": "Activity", "setting": "[1]", "value": "inactive"}, {"measurement": "Activity", "setting": "Colletotrichum", "value": "inactive"}, {"measurement": "EC50", "setting": "Rhizoctonia solani [2]", "value": 9.01, "unit": "µg/mL"}]}, {"smiles": "Cc1ccc(CN(C#N)C(=O)c2ncn(Cc3ccc(C)cc3)c2C)cc1", "values": [{"measurement": "Activity", "setting": "Fusarium oxysporum", "value": "inactive"}, {"measurement": "Activity", "setting": "Botrytis", "value": "inactive"}, {"measurement": "Activity", "setting": "Fusarium graminearum", "value": "inactive"}, {"measurement": "Activity", "setting": "[1]", "value": "inactive"}, {"measurement": "Activity", "setting": "Colletotrichum", "value": "inactive"}, {"measurement": "EC50", "setting": "Rhizoctonia solani [2]", "value": 15.8, "unit": "µg/mL"}]}]}
